The nature of data set [1]: First-in-man study in healthy subjects, safety and tolerability of orally inhaled single doses. It counts as in vivo, human. An excerpt:
In this randomised, double-blind, placebo-controlled, parallel-group (per dose level) dose-escalation study of inhaled single doses in 48 healthy subjects in six dose groups of eight subjects each, conducted by Inamed GmbH, Gauting, Germany, the controlled oral inhalation of the formulation described in Example 1 and dilutions thereof as well as the placebo (0.5% [w/w] aqueous sodium chloride solution adjusted to pH 5.5 with 1 M HCl pharmaceutical grade) occurred via the Pari eFlow® XL 30 nebulizer device (Pari Pharma GmbH, Starnberg, Germany). The dose levels and corresponding concentrations of cyclo(-OctG-Glu-Thr-Ala-Ser-Ile-Pro-Pro-Gln-Lys-Tyr-^DPro-Pro-) (active compound) are summarized in Table 10.
The volume of placebo nebulizer solution corresponded to that of the active compound at a particular dose level. The duration of inhalation depended on the total volume of nebulizer solution and ranged between several minutes and roughly one hour. Adverse events were tabulated and summarized according to the current version of Medical Dictionary for Regulatory Activities.

The nature of data set [2]: Phase-Ib study in CF patients, sputum concentrations (LC-MS/MS). It counts as in vivo, human. As to the method:
Concentrations of active compound in sputum were calculated and Cmax and AUC0-tlast were determined.
Spontaneous sputum samples for PK assessments were collected during the following time intervals/periods:
On Day −1 as soon as possible after the subject's arrival at the study site (blank PK), on Day 1 in the period of time between 1 h and 3 h after start of inhalation, and in the morning of Day 2, at approx. 24 h after start of inhalation. Moreover, any spontaneous sputum expectoration between 0-1 h after start of inhalation was collected.
Spontaneous sputum samples were collected in polystyrene Petri dishes and put on ice immediately. All processing steps had to be performed with cold reagents and on ice whenever possible. Plugs were separated from saliva, but the latter was not discarded. If a sputum sample was taken for both PK and neutrophil elastase activity in sputum analysis, the plug was split in 2 approximately equal parts. One part was processed for PK analysis the other one for evaluation of neutrophil elastase activity in sputum.
For PK processing, the resulting plug was split in approximately 2 equal parts. […] The weight of the sputum samples (SP1+SP3) was determined and all samples were immediately put on dry ice for freezing. […]
The pharmacokinetic parameters mentioned above were calculated based on actual blood and sputum sampling times using non-compartmental procedures.

Molecules are shown by their SMILES. Non-standard residues stand in square brackets, D forms with d. Residues, ends and D or L forms follow the SMILES beside them. Gly(octyl) = CCCCCCCC[C@H](N)C(=O)O

Regarding `CCCCCCCC[C@@H]1NC(=O)[C@@H]2CCCN2C(=O)[C@H]2CCCN2C(=O)[C@H](Cc2ccc(O)cc2)NC(=O)[C@H](CCCCN)NC(=O)[C@H](CCC(N)=O)NC(=O)[C@@H]2CCCN2C(=O)[C@@H]2CCCN2C(=O)[C@H]([C@@H](C)CC)NC(=O)[C@H](CO)NC(=O)[C@H](C)NC(=O)[C@H]([C@@H](C)O)NC(=O)[C@H](CCC(=O)O)NC1=O` [active compound, cyclo(-OctG-Glu-Thr-Ala-Ser-Ile-Pro-Pro-Gln-Lys-Tyr-^DPro-Pro-)] (cyclo([Gly(octyl)]ETASIPPQKY[dP]P)), the “Deaths, serious and other significant adverse events” value in data set [1] (healthy subjects, single inhaled doses 20-960 mg) is “No death, no serious adverse events (AE) and no other significant AE”. In addition, in data set [1] (human, in vivo), the “Inhalation-related adverse events ('cough'), local tolerability” value is given as “three”; the “Number of subjects with AEs” value came out at 13; the “Number of treatment-emergent adverse events (TEAEs)” value was 24; the “Proportion of subjects with AEs” value was 27.1%. In addition, the “Subjects judging overall tolerability as 'very good' or 'good'” value in data set [1] (human, in vivo) is on record as 97.9%. Also, the “Detection in sputum at 24 h after inhalation” value in data set [2] (all dose groups) is “still detected”. Further, in data set [2] (comparison of FIG. 4 and FIG. 3), the “Concentration in sputum relative to plasma” value is listed as “approximately 10^3 fold”.

The values are drawn from US11235023B2, “Beta-hairpin peptidomimetic with elastase inhibitory activity and aerosol dosage forms thereof” (POLYPHOR AG, priority 2016, dated 2022).
